ChEMBL document CHEMBL3580628, “Introduction of polar groups on the naphthalene scaffold of molecular tongs inhibiting wild-type and mutated HIV-1 protease dimerization” (Medchemcomm, 2014)

Legend:
[1] = Metabolic stability in Roswell park memorial institute medium containing 20% fetal calf serum assessed as degradation after 48 hrs by HPLC analysis; assay type: ADME; details: cattle
[2] = Dimerziation inhibition of HIV1 ANAM11 protease mutant using fluorogenic substrate DABCYL- -abu-SQNYPIVQ-EDANS at pH 4.7 by fluorimetric assay; parameters: species or system Human immunodeficiency virus 1
[3] = target: T1, Protease (Human immunodeficiency virus 1, UniProt Q9YQ12); assay: Dimerziation inhibition of HIV1 wild type protease using fluorogenic substrate DABCYL- -abu-SQNYPIVQ-EDANS at pH 4.7 by fluorimetric assay
[4] = Retention time of the compound; assay type: physicochemical
[5] = target: Protease (Human immunodeficiency virus 1) (UniProt Q9YQ12); assay: Competitive inhibition of HIV1 protease using fluorogenic substrate DABCYL- -abu-SQNYPIVQ-EDANS assessed as dissociation for dimer-inhibitor complex at 28 uM at pH 4.7 by fluorimetric assay
[6] = target: T1, Protease; assay: Competitive inhibition of HIV1 protease using fluorogenic substrate DABCYL- -abu-SQNYPIVQ-EDANS assessed as dissociation for dimer-inhibitor complex at pH 4.7 by fluorimetric assay

SMILES	Stability [1]	Ki [2] [nM]	Ki [3] [nM]	Retention_time [4] [min]	inhibition [5] [%]	Ki [6] [nM]
COc1ccc(NC(C)=O)cc1C(=O)NNC(=O)[C@@H](NC(=O)CCCOc1ccc2cc(NCC(O)CO)c(OCCCC(=O)N[C@H](C(=O)NNC(=O)c3cc(NC(C)=O)ccc3OC)C(C)C)cc2c1)C(C)C (some centres not stated)	Stable	940	600	11.3	–	–
CNCC(=O)Nc1cc2ccc(OCCCC(=O)NCCCC[C@H](NC(=O)OC(C)(C)C)C(=O)NNC(=O)c3cc(NC(C)=O)ccc3OC)cc2cc1OCCCC(=O)NCCCC[C@H](NC(=O)OC(C)(C)C)C(=O)NNC(=O)c1cc(NC(C)=O)ccc1OC	–	–	–	11.1	18	–
COc1ccc(NC(C)=O)cc1C(=O)NNC(=O)[C@@H](NC(=O)CCCOc1ccc2cc(N)c(OCCCC(=O)N[C@H](C(=O)NNC(=O)c3cc(NC(C)=O)ccc3OC)C(C)C)cc2c1)C(C)C	–	940	400	10.6	–	–
COc1ccc(NC(C)=O)cc1C(=O)NNC(=O)[C@@H](NC(=O)CCCOc1ccc2cc(NCC3COC(C)(C)O3)c(OCCCC(=O)N[C@H](C(=O)NNC(=O)c3cc(NC(C)=O)ccc3OC)C(C)C)cc2c1)C(C)C (some centres not stated)	–	–	2700	14.2	–	–
COc1ccc(NC(C)=O)cc1C(=O)NNC(=O)[C@H](CCCCNC(=O)CCCOc1ccc2cc(NC(=O)CN3CCNCC3)c(OCCCC(=O)NCCCC[C@H](NC(=O)OC(C)(C)C)C(=O)NNC(=O)c3cc(NC(C)=O)ccc3OC)cc2c1)NC(=O)OC(C)(C)C	–	–	–	11.2	18	–
COc1ccc(NC(C)=O)cc1C(=O)NNC(=O)[C@H](CCCCNC(=O)CCCOc1ccc2cc(N)c(OCCCC(=O)NCCCC[C@H](NC(=O)OC(C)(C)C)C(=O)NNC(=O)c3cc(NC(C)=O)ccc3OC)cc2c1)NC(=O)OC(C)(C)C	Stable	830	550	12.2	–	–
COc1ccc(NC(C)=O)cc1C(=O)NNC(=O)[C@H](CCCCNC(=O)CCCOc1ccc2cc(NC(=O)CN3CCN(C(=O)OCc4ccccc4)CC3)c(OCCCC(=O)NCCCC[C@H](NC(=O)OC(C)(C)C)C(=O)NNC(=O)c3cc(NC(C)=O)ccc3OC)cc2c1)NC(=O)OC(C)(C)C	–	–	–	13.8	0	–
COc1ccc(NC(C)=O)cc1C(=O)NNC(=O)[C@H](CCCCNC(=O)CCCOc1ccc2cc(CNC(=N)N)c(OCCCC(=O)NCCCC[C@H](NC(=O)OC(C)(C)C)C(=O)NNC(=O)c3cc(NC(C)=O)ccc3OC)cc2c1)NC(=O)OC(C)(C)C	–	–	–	11.2	–	15000
COc1ccc(NC(C)=O)cc1C(=O)NNC(=O)[C@H](CCCCNC(=O)CCCOc1ccc2cc(CCCN)c(OCCCC(=O)NCCCC[C@H](NC(=O)OC(C)(C)C)C(=O)NNC(=O)c3cc(NC(C)=O)ccc3OC)cc2c1)NC(=O)OC(C)(C)C	–	–	–	11.4	35	–
COc1ccc(NC(C)=O)cc1C(=O)NNC(=O)[C@@H](NC(=O)CCCOc1ccc2ccc(OCCCC(=O)N[C@H](C(=O)NNC(=O)c3cc(NC(C)=O)ccc3OC)C(C)C)cc2c1)C(C)C	–	–	220	13.8	–	–
COc1ccc(NC(C)=O)cc1C(=O)NNC(=O)[C@H](CCCCNC(=O)CCCOc1ccc2cc(NCC(O)CO)c(OCCCC(=O)NCCCC[C@H](NC(=O)OC(C)(C)C)C(=O)NNC(=O)c3cc(NC(C)=O)ccc3OC)cc2c1)NC(=O)OC(C)(C)C (some centres not stated)	–	–	2750	12.7	–	–
COc1ccc(NC(C)=O)cc1C(=O)NNC(=O)[C@H](CCCCNC(=O)CCCOc1ccc2cc(CCCN(C)C)c(OCCCC(=O)NCCCC[C@H](NC(=O)OC(C)(C)C)C(=O)NNC(=O)c3cc(NC(C)=O)ccc3OC)cc2c1)NC(=O)OC(C)(C)C	–	–	–	11.4	0	–
COc1ccc(NC(C)=O)cc1C(=O)NNC(=O)[C@H](CCCCNC(=O)CCCOc1ccc2cc(NCC3COC(C)(C)O3)c(OCCCC(=O)NCCCC[C@H](NC(=O)OC(C)(C)C)C(=O)NNC(=O)c3cc(NC(C)=O)ccc3OC)cc2c1)NC(=O)OC(C)(C)C (some centres not stated)	–	–	5900	15.2	–	–
COc1ccc(NC(C)=O)cc1C(=O)NNC(=O)[C@H](CCCCNC(=O)CCCOc1ccc2ccc(OCCCC(=O)NCCCC[C@H](NC(=O)OC(C)(C)C)C(=O)NNC(=O)c3cc(NC(C)=O)ccc3OC)cc2c1)NC(=O)OC(C)(C)C	–	2000	280	14.8	–	–
COc1ccc(NC(C)=O)cc1C(=O)NNC(=O)[C@H](CCCCNC(=O)CCCOc1ccc2cc(CN)c(OCCCC(=O)NCCCC[C@H](NC(=O)OC(C)(C)C)C(=O)NNC(=O)c3cc(NC(C)=O)ccc3OC)cc2c1)NC(=O)OC(C)(C)C	–	2450	300	11.1	–	–
